Columns and labels:
[1] = test system: circulating phagocytes (monocytes and neutrophils); test: Hemogram and functional profile of circulating phagocytes in 6-OHDA rat models after prophylactic administration; assay type: in vivo; details: prophylactic i.p.
Protocol: Methods: Adult mature rodents were used in the study. […] Before prophylactic administration of the experimental drugs, the animals underwent an open field test to assay their general locomotor activity levels and anxiety. The prophylactic course consisted of 10 daily intraperitoneal injections of the drugs (in the case of combination drug, its components were administered at an interval of 2 hours). After the end of prophylactic course, Parkinson's disease was modelled in the animals. […] Ten days after the last (second) apomorphine test, the animals' behavioral responses were assessed in the open field test followed by euthanasia and analysis of functional (metabolic and phenotypic) profiles of phagocytes of different localization. Thus, the study of the functional profile of phagocytes in rat models of Parkinson's disease was performed on day 28 after the end of the course of prophylactic treatment with the experimental drugs. […] Functional characteristics of circulating phagocytes (monocytes and neutrophils) were evaluated in whole blood taken into a tube containing EDTA used as an anticoagulant. Mononuclear and polymorphonuclear phagocytes were analyzed on a flow cytofluorimeter using a gating method. […] The hemogram parameters were analyzed on the hematological analyzer Particle counter model PCE 210 (ERMA, Japan) adapted for the study of blood cells of rats and mice.

[2] = test system: microglia; test: Functional and phenotypic properties of microglia in LPS rat models; assay type: in vivo; details: LPS animal models of PD
Protocol: On the 1st day of the experiment, rats were either operated to model hemi-parkinsonism or sham operated. From the 9th to the 18th day of the experiment, the animals were injected either deuterium-depleted water or the test substance, according to their allocation into groups, for 10 days. On the 8th day of the experiment (before initiation of treatment—apomorphine test I) and on the 21st day of the experiment (after the end of administering the test substance —apomorphine test II) the animals underwent an apomorphine test to analyze the development of hemi-parkinsonism which correlates with the number of destroyed dopaminergic neurons. In addition, a follow-up analysis of fecal water content was carried out, i.e., before the start of treatment on the 8th day after the operation, as well as on the 21st (after the end of treatment) and the 28th day (before autopsy). On the 24th day of the experiment, behavioral tests were carried out in all groups. All animals were weighed before autopsy. During autopsy, ⅔ of animals from each group were sacrificed by cervical dislocation and brain and blood samples were collected for further biochemical and immunological tests. ⅓ of the animals were used for further immunohistochemical studies of the brain; for this purpose, under anesthesia, a procedure of fast, controlled and uniform fixation of the whole body of the animal was performed using 4% paraformaldehyde perfused through the heart of the rat to obtain the best preservation of the brain architecture for immunohistochemistry. Gage G J, et al., J Vis Exp. 2012 Jul. 30; (65).
To assess the anti-inflammatory and immunomodulating effects of the test substance, microglia and peritoneal macrophages were isolated. Phenotypic and functional features of peripheral blood phagocytes were evaluated without their fractioning (using whole blood). […]
Phagocytic activity of microglia, peritoneal macrophages and peripheral blood phagocytes was analyzed on a flow cytometer using FITC-labeled S. aureus Wood 46 cells as an object of phagocytosis. […]
Oxidative metabolism of phagocytes of various localization was analyzed by flow cytometry using the cell-permeant 2′7′-dichlorodihydrofluorescein-diacetate (DHP) (carboxy-H2DCFDA, Invitrogen, USA) which is converted by intracellular esterases to the nonfluorescent membrane-impermeable carboxy-H2DCF form.
The phenotypic profile of phagocytes of various localization was characterized by the expression of markers of functional maturity and metabolic polarization (CD206, CD80 and CD86), which was determined by flow cytometry and the use of monoclonal antibodies of appropriate specificity marked with fluorescent dyes (Abcam, Becton Dickinson).

[3] = test system: human T-lymphocytes (CD3+); test: Spontaneous and PHA-induced proliferative activity and activation-induced apoptosis of T-lymphocytes; assay type: cell-based; parameters: activation-induced T-cell apoptosis: dose or concentration left out as unconfirmed
Protocol: Materials and Methods: Peripheral blood mononuclear cells were isolated from a healthy donor by density gradient centrifugation over Histopaque-1077 (Sigma, USA). Phytohemagglutinin (PHA) (Sigma, USA) was used to activate the proliferative activity of T-lymphocytes. The cells were exposed to the action of both preparations for 48 hours. A stimulatory (with the addition of the drugs as single components) and costimulatory (with the addition of the drugs in combination with PHA) effects were assessed. CD3 phenotypic marker was used to selectively measure proliferative activity of T-lymphocytes. The T-cell proliferative activity was assessed by analyzing the DNA status of CD3+ cells using a flow cytometry technique. The results are presented in the form of a proliferative index, calculated by the following formula: […]

Question: “^64Zn-enriched zinc aspartate [^64Zne-asp]” was tested. Which “oxidative metabolism in circulating neutrophils” value [1] did it give?
Answer: absence of any disturbances

Question: And the “phagocytic activity of circulating monocytes” value [1]?
Answer: did not differ from that of intact animals

Question: And the “expression of CD86 by microglia” value [2]?
Answer: significant increase

Question: What about the “expression of CD206 by microglia” value [2] of the same substance?
Answer: increased expression

Question: What about the “oxidative metabolism of microglia” value [2] of the same substance?
Answer: slightly but statistically significantly increased

Question: What about the “phagocytic activity of microglia” value [2] of the same substance?
Answer: sharp increase

Question: And the “activation-induced T-cell apoptosis” value ([3]; drug used alone)?
Answer: did not have any effect

Question: What about the “PHA (mitogen)-induced proliferative activity of T-lymphocytes” value ([3]; in combination with PHA, 48 hours) of the same substance?
Answer: stimulatory and costimulatory effects

Question: And the “activation-induced T-cell apoptosis” value ([3]; in combination with the mitogen)?
Answer: significantly decreased

Question: And the “spontaneous proliferative activity of CD3+ T-lymphocytes” value ([3]; used separately from PHA, 48 hours)?
Answer: dose-dependent weak stimulatory effect
